Reference: patent publication EP2061765B1, “Serine-threonine protein kinase and PARP modulators” (Senhwa Biosciences, Inc., priority 2006, dated 2008)

What was measured:
Experiment in all cases: Cell proliferation assay (Alamar Blue)
Type in all cases: cell-based
MDAMB231 = details: Homo sapiens, MDA-MB-231, 96 h, MDAMB231 cells, four days
Method: (§1) A representative cell-proliferation assay protocol using Alamar Blue dye (stored at 4°C, use 20ul per well) is described hereafter. 96-well plate setup and compound treatment • a. Split and trypsinize cells. • b. Count cells using hemocytometer. • c. Plate 4,000-5,000 cells per well in 100 µl of medium and seed into a 96-well plate according to the following plate layout. Add cell culture medium only to wells B10 to B12. Wells B1 to B9 have cells but no compound added. [formula] [formula] • d. Add 100 µl of 2X drug dilution to each well in a concentration shown in the plate layout above. At the same time, add 100 µl of media into the control wells (wells B10 to B12). Total volume is 200 µl/well. • e. Incubate four (4) days at 37°C, 5% CO2 in a humidified incubator. • f. Add 20µl Alamar Blue reagent to each well. • g. Incubate for four (4) hours at 37°C, 5% CO2 in a humidified incubator. • h. Record fluorescence at an excitation wavelength of 544nm and emission wavelength of 590nm using a microplate reader.
(§2) In the assays, cells are cultured with a test compound for approximately four days, the dye then is added to the cells and fluorescence of […] dye is detected after approximately four hours. Different types of cells can be utilized in the assays (e.g., HCT-116 human colorectal carcinoma cells, PC-3 human prostatic cancer cells and MiaPaca human pancreatic carcinoma cells). Anti-proliferative effects of representative compounds are provided hereafter.

PanC1 = details: Homo sapiens, PANC-1, 96 h, PanC1 cells, four days
Method: as §1, §2

BxPC3 = details: Homo sapiens, BXPC-3, 96 h, BxPC3 cells, four days
Method: as §1, §2

Row | Structure (SMILES) | IC50 (MDAMB231) | IC50 (PanC1) | IC50 (BxPC3)
1 | Nc1ncc2c(n1)c(Nc1ccc(F)c(Cl)c1)nc1cc(C(=O)O)ccc12 [drawing 415] | 6.53 µM |  | 
2 | O=C(O)c1ccc2c(c1)nc(Nc1ccc(F)c(Cl)c1)c1nc(NC3CC3)ncc12 [drawing 416] | 7.12 µM |  | 
3 | COCCNc1ncc2c(n1)c(Nc1ccc(F)c(Cl)c1)nc1cc(C(=O)O)ccc12 [drawing 417] | 12.6 µM |  | 
4 | C#Cc1cccc(Nc2nc3cc(C(=O)O)ccc3c3cnc(NCCOCC)nc23)c1 [drawing 418] | 31.6 µM |  | 
5 | C#Cc1cccc(Nc2nc3cc(C(=O)O)ccc3c3cnc(NCCCOCC)nc23)c1 [drawing 419] | 5.22 µM |  | 
6 | C#Cc1cccc(Nc2nc3cc(C(=O)O)ccc3c3cnc(NCCCOC(C)C)nc23)c1 [drawing 420] | 7.05 µM |  | 
7 | O=C(O)c1ccc2c(c1)nc(Nc1cccc(Cl)c1)c1nc(O)ncc12 [drawing 421] | > 50 µM |  | 
8 | Cc1ncc2c(n1)c(Nc1cccc(Cl)c1)nc1cc(C(=O)O)ccc12 [drawing 422] | 5.48 µM |  | 
9 | C#Cc1cccc(Nc2nc3cc(C(=O)OC)ccc3c3cnc(NOC)nc23)c1 [drawing 423] | > 50 µM |  | 
10 | COC(=O)c1ccc2c(c1)nc(Nc1cccc(Cl)c1)c1nc(NCCC(N)=O)ncc12 [drawing 424] | 27.2 µM |  | 
11 | NC(=O)CCNc1ncc2c(n1)c(Nc1cccc(Cl)c1)nc1cc(C(=O)O)ccc12 [drawing 425] | > 50 µM |  | 
12 | O=C(O)CCNc1ncc2c(n1)c(Nc1cccc(Cl)c1)nc1cc(C(=O)O)ccc12 [drawing 426] | > 50 µM |  | 
13 | Cc1cccc(Nc2nc3cc(C(=O)O)ccc3c3cnccc23)c1 [drawing 427] | 17.5 µM |  | 
14 | O=C(O)c1ccc2c(c1)nc(Nc1cccc(C(F)(F)F)c1)c1ccncc12 [drawing 428] | 13 µM |  | 
15 | O=C(O)c1ccc2c(c1)nc(Nc1cc(F)cc(F)c1)c1nc(NC3CC3)ncc12 [drawing 429] | 23 µM |  | 
16 | O=C(O)c1ccc2c(c1)nc(Nc1cccc(F)c1)c1nc(NC3CC3)ncc12 [drawing 430] | 12.8 µM |  | 
17 | COc1cccc(Nc2nc3cc(C(=O)O)ccc3c3cnc(NC4CC4)nc23)c1 [drawing 431] | 20.1 µM |  | 
18 | CN(C)CCNc1ncc2c(n1)c(Nc1ccc(F)c(Cl)c1)nc1cc(C(=O)O)ccc12 [drawing 432] | > 50 µM |  | 
19 | O=C(O)c1ccc2c(c1)nc(Nc1ccc(F)c(Cl)c1)c1nc(NCc3ccccn3)ncc12 [drawing 433] | 33.7 µM |  | 
20 | COC(CNc1ncc2c(n1)c(Nc1ccc(F)c(Cl)c1)nc1cc(C(=O)O)ccc12)OC [drawing 434] | 25.4 µM |  | 
21 | NC(=O)c1ccc2c(c1)nc(Nc1cccc(C(F)(F)F)c1)c1nc(NC3CC3)ncc12 [drawing 435] | > 50 µM |  | 
22 | O=C(NC1CC1)c1ccc2c(c1)nc(Nc1cccc(C(F)(F)F)c1)c1nc(NC3CC3)ncc12 [drawing 436] | 39.8 µM |  | 
23 | CNC(=O)c1ccc2c(c1)nc(Nc1cccc(C(F)(F)F)c1)c1nc(NC3CC3)ncc12 [drawing 437] | 10.5 µM |  | 

Row | Structure (SMILES) | IC50 (MDAMB231) | IC50 (PanC1) | IC50 (BxPC3)
24 | O=C(O)c1ccc2c(c1)nc(Nc1ccc(F)c(Cl)c1)c1nc(NCc3cccnc3)ncc12 [drawing 438] | 5.48 µM |  | 
25 | O=C(O)c1ccc2c(c1)nc(Nc1ccc(F)c(Cl)c1)c1nc(NCc3ccncc3)ncc12 [drawing 439] | 12.1 µM |  | 
26 | O=C(O)c1ccc2c(c1)nc(Nc1ccccc1)c1nc(Nc3ccccc3)ncc12 [drawing 440] | 19.2 µM |  | 
27 | CC(C)OC(=O)Nc1ccc2c(c1)nc(Nc1cccc(C(F)(F)F)c1)c1nc(NC3CC3)ncc12 [drawing 441] | 4.27 µM |  | 
28 | CCOC(=O)CCNC(=O)c1ccc2c(c1)nc(Nc1cccc(C(F)(F)F)c1)c1nc(NC3CC3)ncc12 [drawing 442] | 2.52 µM |  | 
29 | O=C(O)c1ccc2c(c1)nc(Nc1ccc(F)c(Cl)c1)c1ncncc12 [drawing 445] |  | 3.37 µM | 3.55 µM
30 | Fc1cccc(Nc2nc3cc(-c4nnn[nH]4)ccc3c3cnccc23)c1 [drawing 453] |  | > 50 µM | 
31 | Fc1cc(Nc2nc3cc(-c4nnn[nH]4)ccc3c3cnccc23)ccc1Cl [drawing 454] |  | > 50 µM | 
32 | Clc1cccc(Nc2nc3cc(-c4nnn[nH]4)ccc3c3cnccc23)c1 [drawing 458] |  | > 50 µM | 
33 | O=C(O)c1ccc2c(c1)nc(Nc1ccccc1)c1nc(NC3CC3)ncc12 [drawing 461] |  | 5.02 µM | 2.16 µM
34 | CCCNc1ncc2c(n1)c(Nc1ccccc1)nc1cc(C(=O)O)ccc12 [drawing 462] |  | 4.28 µM | 5.83 µM
35 | COCCNc1ncc2c(n1)c(Nc1ccccc1)nc1cc(C(=O)O)ccc12 [drawing 463] |  | 32.6 µM | 3.92 µM
36 | O=C(O)c1ccc2c(c1)nc(Nc1ccccc1)c1nc(NCCO)ncc12 [drawing 464] |  | > 50 µM | 23.5 µM
37 | O=C(O)c1ccc2c(c1)nc(Nc1ccccc1)c1nc(NCCCO)ncc12 [drawing 465] |  | 34.2 µM | 9.41 µM
38 | O=C(O)c1ccc2c(c1)nc(Nc1ccccc1)c1nc(NC3CCNCC3)ncc12 [drawing 466] |  | > 50 µM | 8.36 µM
39 | CCN(CC)CCNc1ncc2c(n1)c(Nc1ccccc1)nc1cc(C(=O)O)ccc12 [drawing 467] |  | > 50 µM | 10.7 µM
40 | O=C(O)c1ccc2c(c1)nc(Nc1ccccc1)c1nc(NCCN3CCOCC3)ncc12 [drawing 468] |  | 27.4 µM | 4.67 µM
41 | O=C(O)c1ccc2c(c1)nc(Nc1ccccc1)c1nc(NCCCN3CCOCC3)ncc12 [drawing 469] |  | > 50 µM | 1.65 µM
42 | C#Cc1cccc(Nc2nc3cc(C(=O)O)ccc3c3cnc(NC4CC4)nc23)c1 [drawing 470] |  | 5.79 µM | 1.05 µM
43 | C#Cc1cccc(Nc2nc3cc(C(=O)O)ccc3c3cnc(NCCC)nc23)c1 [drawing 471] |  | 8.12 µM | 3 µM
44 | C#Cc1cccc(Nc2nc3cc(C(=O)O)ccc3c3cnc(NCCOC)nc23)c1 [drawing 472] |  | 4.61 µM | 1.17 µM
45 | C#Cc1cccc(Nc2nc3cc(C(=O)O)ccc3c3cnc(NC4CCNCC4)nc23)c1 [drawing 473] |  | > 50 µM | 25.3 µM

The remaining lines, values ahead:

Row | IC50 (MDAMB231) | IC50 (PanC1) | IC50 (BxPC3) | Structure (SMILES)
46 |  | 11.2 µM | 3.6 µM | C#Cc1cccc(Nc2nc3cc(C(=O)O)ccc3c3cnc(NCCCN4CCOCC4)nc23)c1 [drawing 474]
47 |  | 13.8 µM | 1.6 µM | C#Cc1cccc(Nc2nc3cc(C(=O)O)ccc3c3cnc(NC)nc23)c1 [drawing 475]
48 |  | 17.9 µM | 2.6 µM | O=C(O)c1ccc2c(c1)nc(Nc1ccc(Cl)c(C(F)(F)F)c1)c1ccncc12 [drawing 476]
49 |  | 4.61 µM | 1.95 µM | O=C(O)c1ccc2c(c1)nc(Nc1cccc(Cl)c1)c1nc(NC3CC3)ncc12 [drawing 477]
50 |  | 35.2 µM | 4.31 µM | O=C(O)c1ccc2c(c1)nc(Nc1cccc(C(F)(F)F)c1)c1ncncc12 [drawing 478]
51 |  | > 50 µM | 49.6 µM | CCOc1ncc2c(n1)c(Nc1cccc(C(F)(F)F)c1)nc1cc(C(=O)O)ccc12 [drawing 479]
52 |  | 8.3 µM | 2.56 µM | CNc1ncc2c(n1)c(Nc1cccc(Cl)c1)nc1cc(C(=O)O)ccc12 [drawing 480]
53 |  | > 50 µM | 42.7 µM | CN(C)c1ncc2c(n1)c(Nc1cccc(Cl)c1)nc1cc(C(=O)O)ccc12 [drawing 481]
54 |  | 3.62 µM | 0.61 µM | Nc1ncc2c(n1)c(Nc1cccc(Cl)c1)nc1cc(C(=O)O)ccc12 [drawing 482]
55 |  | 33.2 µM | 36.9 µM | CC(C)Nc1ncc2c(n1)c(Nc1cccc(Cl)c1)nc1cc(C(=O)O)ccc12 [drawing 483]
56 |  | 2.03 µM | 10 µM | O=C(O)c1ccc2c(c1)nc(Nc1cccc(C(F)(F)F)c1)c1nc(NC3CC3)ncc12 [drawing 484]
57 |  | 1.61 µM | 2.37 µM | CCNc1ncc2c(n1)c(Nc1cccc(Cl)c1)nc1cc(C(=O)O)ccc12 [drawing 485]
58 |  | > 50 µM | 1.46 µM | CNc1ncc2c(n1)c(Nc1ccc(F)c(Cl)c1)nc1cc(C(=O)O)ccc12 [drawing 486]
59 |  | 8.03 µM | 0.7 µM | Nc1ncc2c(n1)c(Nc1ccc(F)c(Cl)c1)nc1cc(C(=O)O)ccc12 [drawing 487]
60 |  | 8.53 µM | 9.48 µM | O=C(O)c1ccc2c(c1)nc(Nc1ccc(F)c(Cl)c1)c1nc(NC3CC3)ncc12 [drawing 488]
61 |  | > 50 µM | 1.61 µM | COCCNc1ncc2c(n1)c(Nc1ccc(F)c(Cl)c1)nc1cc(C(=O)O)ccc12 [drawing 489]
62 |  | 2.41 µM | 0.69 µM | C#Cc1cccc(Nc2nc3cc(C(=O)O)ccc3c3cnc(NCCOCC)nc23)c1 [drawing 490]
63 |  | 1.04 µM | 0.48 µM | C#Cc1cccc(Nc2nc3cc(C(=O)O)ccc3c3cnc(NCCCOCC)nc23)c1 [drawing 491]
64 |  | 3.1 µM | 0.97 µM | C#Cc1cccc(Nc2nc3cc(C(=O)O)ccc3c3cnc(NCCCOC(C)C)nc23)c1 [drawing 492]
65 |  | > 50 µM | 15.8 µM | O=C(O)c1ccc2c(c1)nc(Nc1cccc(Cl)c1)c1nc(O)ncc12 [drawing 493]
66 |  | > 50 µM | 8.88 µM | Cc1ncc2c(n1)c(Nc1cccc(Cl)c1)nc1cc(C(=O)O)ccc12 [drawing 494]
67 |  |  | 7.33 µM | O=C(O)c1ccc2c(c1)nc(Nc1ccc(F)c(Cl)c1)c1nc(NCc3ccncc3)ncc12 [drawing 511]
